{"source": "ChEMBL document CHEMBL5038591", "about": "“Identification of a Novel TAR RNA-Binding Protein 2 Modulator with Potential Therapeutic Activity against Hepatocellular Carcinoma” (J Med Chem, 2021)", "key": {"Mus musculus [1]": {"system": "Mus musculus", "assay": "Downregulation of TPX2 expression in mouse liver at 40 mg/kg measured after 30 days by immunohistochemical staining analysis", "format": "functional, organism-based", "conditions": "time 30.0 day"}, "SK-HEP1 [2]": {"system": "SK-HEP1", "assay": "Antiproliferative activity against human SK-HEP1 cells assessed as increase in miR-452-5p level at 20 uM by qRT-PCR analysis", "format": "functional, cell-based"}, "[3]": {"molecular_target": "T1, Signal transducer and activator of transcription 1-alpha/beta (Homo sapiens) (UniProt P42224)", "T1 sequence (whole entry)": "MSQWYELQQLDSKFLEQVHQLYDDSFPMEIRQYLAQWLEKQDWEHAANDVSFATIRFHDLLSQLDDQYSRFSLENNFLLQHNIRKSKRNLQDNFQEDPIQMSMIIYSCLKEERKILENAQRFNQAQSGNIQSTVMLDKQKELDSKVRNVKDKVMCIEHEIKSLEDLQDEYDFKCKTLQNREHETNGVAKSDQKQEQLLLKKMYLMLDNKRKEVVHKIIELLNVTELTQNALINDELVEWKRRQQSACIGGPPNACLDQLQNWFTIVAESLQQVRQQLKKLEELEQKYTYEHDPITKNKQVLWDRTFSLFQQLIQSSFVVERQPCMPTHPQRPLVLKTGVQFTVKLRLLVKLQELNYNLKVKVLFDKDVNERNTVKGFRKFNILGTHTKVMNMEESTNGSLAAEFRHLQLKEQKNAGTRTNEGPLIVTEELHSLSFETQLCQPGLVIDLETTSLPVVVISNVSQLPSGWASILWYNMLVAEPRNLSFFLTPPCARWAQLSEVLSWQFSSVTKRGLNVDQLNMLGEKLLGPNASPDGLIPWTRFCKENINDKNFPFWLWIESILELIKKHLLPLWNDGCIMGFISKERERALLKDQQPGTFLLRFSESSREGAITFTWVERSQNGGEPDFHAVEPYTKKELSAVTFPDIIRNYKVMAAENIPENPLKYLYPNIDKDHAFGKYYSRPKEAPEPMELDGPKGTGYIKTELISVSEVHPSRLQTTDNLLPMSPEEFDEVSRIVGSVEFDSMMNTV", "assay": "Inhibition of STAT1 phosphorylation in human SK-HEP1 cells at 30 uM by Western blot analysis", "format": "cell-based"}, "Mus musculus [4]": {"system": "Mus musculus", "assay": "Downregulation of UBE2S expression in mouse liver at 40 mg/kg measured after 30 days by immunohistochemical staining analysis", "format": "functional, organism-based", "conditions": "time 30.0 day"}, "[5]": {"molecular_target": "Mitogen-activated protein kinase; ERK1/ERK2 (Homo sapiens) (UniProt P27361+P28482)", "sequence (P27361 whole entry, looked up)": "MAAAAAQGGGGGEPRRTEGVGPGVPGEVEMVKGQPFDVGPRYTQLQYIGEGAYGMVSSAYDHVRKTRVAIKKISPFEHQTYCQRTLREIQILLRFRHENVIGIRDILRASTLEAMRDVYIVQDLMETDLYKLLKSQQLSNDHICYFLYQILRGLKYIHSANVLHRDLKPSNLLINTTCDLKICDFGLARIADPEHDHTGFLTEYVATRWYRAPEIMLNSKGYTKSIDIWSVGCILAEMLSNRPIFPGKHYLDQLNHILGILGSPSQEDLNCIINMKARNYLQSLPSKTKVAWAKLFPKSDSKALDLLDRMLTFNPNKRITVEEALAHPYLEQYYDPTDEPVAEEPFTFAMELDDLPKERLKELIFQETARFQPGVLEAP", "sequence (P28482 whole entry, looked up)": "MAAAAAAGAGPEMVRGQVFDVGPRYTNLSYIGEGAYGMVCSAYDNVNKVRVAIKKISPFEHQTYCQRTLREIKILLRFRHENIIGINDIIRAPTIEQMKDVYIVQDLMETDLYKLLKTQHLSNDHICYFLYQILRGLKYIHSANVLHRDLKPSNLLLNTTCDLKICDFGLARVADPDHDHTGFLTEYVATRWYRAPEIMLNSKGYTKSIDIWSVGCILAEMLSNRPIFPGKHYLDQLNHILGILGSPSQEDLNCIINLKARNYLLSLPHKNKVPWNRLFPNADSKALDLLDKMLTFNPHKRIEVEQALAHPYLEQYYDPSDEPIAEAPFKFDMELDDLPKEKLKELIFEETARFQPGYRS", "assay": "Inhibition of ERK1/2 phosphorylation in human SK-HEP1 cells at 30 uM by Western blot analysis", "format": "cell-based"}, "HepG2 [6]": {"system": "HepG2", "assay": "Antiproliferative activity against human HepG2 cells incubated for 24 hrs by alamar blue assay", "conditions": "HepG2, 24 h"}, "SK-HEP1 [7]": {"system": "SK-HEP1", "assay": "Antiproliferative activity against human SK-HEP1 cells assessed as increase in miR-222-5p level at 20 uM by qRT-PCR analysis", "format": "functional, cell-based"}, "SK-HEP1 [8]": {"system": "SK-HEP1", "assay": "Induction of cell cycle arrest in human SK-HEP1 cells assessed as G1 phase accumulation at 20 uM incubated for 24 hrs by propidium iodide staining based flow cytometry analysis (reference value: 48.61%)", "format": "functional"}, "MHCC97 [9]": {"system": "MHCC97", "assay": "Antiproliferative activity against human MHCC97 cells incubated for 24 hrs by alamar blue assay", "conditions": "MHCC97, 24 h"}, "SK-HEP1 [10]": {"system": "SK-HEP1", "assay": "Antiproliferative activity against human SK-HEP1 cells assessed as increase in miR-26a-5p level at 20 uM by qRT-PCR analysis", "format": "functional, cell-based"}, "SK-HEP1 [11]": {"system": "SK-HEP1", "assay": "Inhibition of cell migration in human SK-HEP1 cells knockdown TRBP at 20 uM measured after 12 hrs using crystal violet staining inverted microscope based transwell assay", "format": "functional"}, "HeLa": {"system": "HeLa", "assay": "Antiproliferative activity against human HeLa cells incubated for 24 hrs by alamar blue assay"}, "MHCC97 [12]": {"system": "MHCC97", "assay": "Antiproliferative activity against human MHCC97 cells at 25 uM incubated for 24 hrs by alamar blue assay", "format": "functional, cell-based"}, "SK-HEP1 [13]": {"system": "SK-HEP1", "assay": "Antiproliferative activity against human SK-HEP1 cells assessed as decrease in miR135a-5p level at 20 uM by qRT-PCR analysis", "format": "functional, cell-based"}, "SK-HEP1 [14]": {"system": "SK-HEP1", "assay": "Induction of apoptosis in human SK-HEP1 cells at 30 uM incubated for 24 hrs by Annexin V-FITC/PI staining based flow cytometry", "format": "functional, cell-based"}, "SK-HEP1 [15]": {"system": "SK-HEP1", "assay": "Inhibition of cell migration in human SK-HEP1 cells at 30 uM incubated for 12 hrs by crystal violet staining based transwell assay", "format": "functional"}, "SK-HEP1 [16]": {"system": "SK-HEP1", "assay": "Inhibition of epithelial-mesenchymal transition in human SK-HEP1 cells assessed as change in N-cadherin expression at 10 to 50 uM incubated for 24 hrs by Western blot analysis", "format": "functional, cell-based", "conditions": "dose 10-50 µM"}, "Huh-7": {"system": "Huh-7", "assay": "Antiproliferative activity against human Huh-7 cells incubated for 24 hrs by alamar blue assay", "conditions": "Huh-7, 24 h"}, "SK-HEP1 [17]": {"system": "SK-HEP1", "assay": "Effect on AGO2 protein expression in human SK-HEP1 cells at 30 uM after 24 hrs by immunoblot analysis", "format": "functional, cell-based"}, "SK-HEP1 [18]": {"system": "SK-HEP1", "assay": "Inhibition of MEK phosphorylation in human SK-HEP1 cells at 30 uM by Western blot analysis", "format": "cell-based"}, "HCT-116": {"system": "HCT-116", "assay": "Antiproliferative activity against human HCT-116 cells incubated for 24 hrs by alamar blue assay", "conditions": "HCT-116, 24 h"}, "MDA-MB-231": {"system": "MDA-MB-231", "assay": "Antiproliferative activity against human MDA-MB-231 cells incubated for 24 hrs by alamar blue assay", "conditions": "MDA-MB-231, 24 h"}, "SK-HEP1 [19]": {"system": "SK-HEP1", "assay": "Induction of cell cycle arrest in human SK-HEP1 cells assessed as S phase accumulation at 20 uM incubated for 24 hrs by propidium iodide staining based flow cytometry analysis (reference value: 26.72%)", "format": "functional"}, "[20]": {"molecular_target": "MAP kinase p38 (Homo sapiens) (UniProt O15264+Q15759+Q16539+P53778)", "assay": "Inhibition of p38 phosphorylation in human SK-HEP1 cells at 30 uM by Western blot analysis", "format": "cell-based"}, "SK-HEP1 [21]": {"system": "SK-HEP1", "assay": "Effect on human SK-HEP1 cells assessed as increase in miR-497-5p level by qRT-PCR analysis", "format": "functional, cell-based"}, "SK-HEP1 [22]": {"system": "SK-HEP1", "assay": "Antiproliferative activity against human SK-HEP1 cells overexpressing TRBP at 20 uM measured by crystal violet dye based colony formation assay", "format": "functional, cell-based"}, "[23]": {"assay": "Toxicity in SCID mouse xenografted with human MHCC97 cells assessed as increase in body weight at 40 mg/kg, ip administered once every 3 day for 30 days", "format": "organism-based", "conditions": "in vivo, 720 h, time 30 day"}, "SK-HEP1 [24]": {"system": "SK-HEP1", "assay": "Effect on TRBP protein expression in human SK-HEP1 cells at 30 uM after 24 hrs by immunoblot analysis", "format": "functional, cell-based"}, "HepG2 [25]": {"system": "HepG2", "assay": "Antiproliferative activity against human HepG2 cells at 25 uM incubated for 24 hrs by alamar blue assay", "format": "functional, cell-based"}, "SK-HEP1 [26]": {"system": "SK-HEP1", "assay": "Inhibition of epithelial-mesenchymal transition in human SK-HEP1 cells assessed as change in beta-catenin expression at 10 to 50 uM incubated for 24 hrs by Western blot analysis", "format": "functional, cell-based", "conditions": "dose 10-50 µM"}, "SK-HEP1 [27]": {"system": "SK-HEP1", "assay": "Effect on human SK-HEP1 cells assessed as increase in miR-146a-5p level by qRT-PCR analysis", "format": "functional, cell-based"}, "SK-HEP1 [28]": {"system": "SK-HEP1", "assay": "Antiproliferative activity against human SK-HEP1 cells assessed as decrease in miR-30a-5p level at 20 uM by qRT-PCR analysis", "format": "functional, cell-based"}}, "note": "Calls of active or inactive are those of the source. The rule behind the calls is not given here.", "data": [{"smiles": "COc1cc2c(c(O)c1OC)-c1c(cc3c(c1OC)OCO3)C[C@H](C)[C@H](C)C2", "values": [{"measurement": "Activity", "setting": "Mus musculus [1]", "result": "Active"}, {"measurement": "Activity", "setting": "SK-HEP1 [2]", "result": "inactive"}, {"measurement": "inhibition", "setting": "[3]", "result": "inactive"}, {"measurement": "Activity", "setting": "Mus musculus [4]", "result": "Active"}, {"measurement": "inhibition", "setting": "[5]", "result": "Active"}, {"measurement": "IC50", "setting": "HepG2 [6]", "result": 27.3, "unit": "µM"}, {"measurement": "Activity", "setting": "SK-HEP1 [7]", "result": "inactive"}, {"measurement": "Activity", "setting": "SK-HEP1 [8]", "result": 57.4, "unit": "%"}, {"measurement": "IC50", "setting": "MHCC97 [9]", "result": 24.8, "unit": "µM"}, {"measurement": "Activity", "setting": "SK-HEP1 [10]", "result": "Active"}, {"measurement": "inhibition", "setting": "SK-HEP1 [11]", "result": "inactive"}, {"measurement": "IC50", "setting": "HeLa", "result": 32.8, "unit": "µM"}, {"measurement": "Activity", "setting": "MHCC97 [12]", "result": "Active"}, {"measurement": "Activity", "setting": "SK-HEP1 [13]", "result": "inactive"}, {"measurement": "Activity", "setting": "SK-HEP1 [14]", "result": "inactive"}, {"measurement": "inhibition", "setting": "SK-HEP1 [15]", "result": "Active"}, {"measurement": "inhibition", "setting": "SK-HEP1 [16]", "result": "inactive"}, {"measurement": "IC50", "setting": "Huh-7", "result": 32.2, "unit": "µM"}, {"measurement": "Activity", "setting": "SK-HEP1 [17]", "result": "inactive"}, {"measurement": "inhibition", "setting": "SK-HEP1 [18]", "result": "Active"}, {"measurement": "IC50", "setting": "HCT-116", "result": 55.4, "unit": "µM"}, {"measurement": "IC50", "setting": "MDA-MB-231", "result": 56.6, "unit": "µM"}, {"measurement": "Activity", "setting": "SK-HEP1 [19]", "result": 22.3, "unit": "%"}, {"measurement": "inhibition", "setting": "[20]", "result": "inactive"}, {"measurement": "Activity", "setting": "SK-HEP1 [21]", "result": "Dose-Dependent Effect"}, {"measurement": "Activity", "setting": "SK-HEP1 [22]", "result": "Active"}, {"measurement": "Activity", "setting": "[23]", "result": "Toxic"}, {"measurement": "Activity", "setting": "SK-HEP1 [24]", "result": "inactive"}, {"measurement": "Activity", "setting": "HepG2 [25]", "result": "Active"}, {"measurement": "inhibition", "setting": "SK-HEP1 [26]", "result": "inactive"}, {"measurement": "Activity", "setting": "SK-HEP1 [27]", "result": "Dose-Dependent Effect"}, {"measurement": "Activity", "setting": "SK-HEP1 [28]", "result": "inactive"}]}]}
